{"source": "patent US10774053B2", "about": "“HIV protease inhibitors” (Gilead Sciences, Inc., priority 2017, dated 2020)", "data": [{"tested_on": "HIV-1 (IIIB) in MT-4 cells", "experiment": "microbe, parasite or virus in culture", "format": "cell-based", "details": "Human immunodeficiency virus 1, IIIB, MT4, MT-4 cells, HIV-1; read-out: MT4 EC50", "units": {"EC50": "nM"}, "values": [{"smiles": "CC(C)(C)C[C@]1(c2cc(F)cc(F)c2)NC(=N)N([C@H](COC(=O)NC2(C)CC2)c2ccc(Cl)c(-n3cc(-c4ccccn4)cn3)c2)C1=O", "note": "[Compound 256]", "EC50": 554}, {"smiles": "CC(C)(C)C[C@]1(c2ccc(-n3cnnn3)c(F)c2)NC(=N)N([C@H](COC(=O)NC2(C(F)(F)F)CC2)c2ccc(Cl)c(-n3ncnc3C(F)F)c2)C1=O", "note": "[Compound 355]", "EC50": 24.6}, {"smiles": "CC(C)(C)C[C@]1(c2ccc(-c3ccc(C#N)cc3)cc2)NC(=N)N([C@H](COC(=O)NC2(C(F)(F)F)CC2)c2ccc(Cl)c(-n3ncnc3C(F)F)c2)C1=O", "note": "[Compound 281]", "EC50": 22.2}, {"smiles": "CC1CCN1C(=O)OC[C@H](c1ccc(Cl)c(-c2ncn[nH]2)c1)N1C(=N)N[C@](CC(C)(C)C)(c2ccc(-c3cnn(C(F)F)c3)cc2)C1=O", "note": "(some centres unmarked) [Compound 88]", "EC50": 24.3}, {"smiles": "CC(C)(C)C[C@]1(c2ccc(-c3cnc(C(F)(F)F)nc3)cc2)NC(=N)N([C@H](COC(=O)NC2(C(F)(F)F)CC2)c2ccc(Cl)c(-c3ncnn3C(F)F)c2)C1=O", "note": "[Compound 122]", "EC50": 25.4}, {"smiles": "CC(C)(C)C[C@]1(c2ccc(N3CCn4c(nnc4C(F)(F)F)C3)cc2)NC(=N)N([C@H](COC(=O)NC2(C(F)(F)F)CC2)c2ccc(Cl)c(-n3ncnc3C(F)F)c2)C1=O", "note": "[Compound 326]", "EC50": 52.9}, {"smiles": "Cn1ncnc1-c1cc([C@@H](COC(=O)NC(C)(C)C(F)F)N2C(=N)N[C@](CC(C)(C)F)(c3ccc(-c4cnn(C(F)F)c4)cc3)C2=O)ccc1Cl", "note": "[Compound 128]", "EC50": 85}, {"smiles": "CC(C)(C)C[C@]1(c2ccc(-c3cnn(C(F)F)c3)cc2)NC(=N)N([C@H](COC(=O)NC(C)(C)C(F)(F)F)c2ccc(Cl)c(-c3ncnn3C(F)F)c2)C1=O", "note": "[Compound 115]", "EC50": 11.7}, {"smiles": "CC(C)(C)C[C@]1(c2ccc(-c3ccc(F)cn3)cc2)NC(=N)N([C@H](COC(=O)NC2(C(F)(F)F)CC2)c2ccc(Cl)c(-n3ncnc3C(F)F)c2)C1=O", "note": "[Compound 274]", "EC50": 11.1}, {"smiles": "CC(C)(C)C[C@]1(c2ccc(-c3cnn(C(F)F)c3)cc2)NC(=N)N([C@H](COC(=O)NC2(C(F)(F)F)CC2)c2ccc(F)c(-c3ncnn3C(F)F)c2)C1=O", "note": "[Compound 123]", "EC50": 28.1}, {"smiles": "CN(C)C(=O)OC[C@H](c1ccc(Cl)c(-c2ncn[nH]2)c1)N1C(=N)N[C@](CC(C)(C)C)(c2ccc(-c3cnn(C(F)F)c3)cc2)C1=O", "note": "[Compound 81]", "EC50": 31.6}, {"smiles": "CC(C)(C)C[C@]1(c2ccc(-c3cnn(C4CC4)c3)cc2)NC(=N)N([C@H](COC(=O)NCC(F)(F)F)c2ccc(Cl)c(-n3ncnc3C(F)F)c2)C1=O", "note": "[Compound 221]", "EC50": 15.4}, {"smiles": "Cn1ncnc1-c1cc([C@@H](COC(=O)NC2CC2)N2C(=N)N[C@](CC(C)(C)C)(c3ccc(-c4cnn(C(F)F)c4)cc3)C2=O)ccc1Cl", "note": "[Compound 18]", "EC50": 9.56}, {"smiles": "CC(C)(C)C[C@]1(c2ccc(-c3cnn(C4CC4)c3)cc2)NC(=N)N([C@H](COC(=O)N[C@H]2CC2(F)F)c2ccc(Cl)c(-n3ncnc3C(F)F)c2)C1=O", "note": "[Compound 294]", "EC50": 8.74}, {"smiles": "CC(C)(C)C[C@]1(c2ccc(-c3ncccn3)cc2)NC(=N)N([C@H](COC(=O)NC2(C(F)(F)F)CC2)c2ccc(Cl)c(-c3ncnn3C(F)F)c2)C1=O", "note": "[Compound 117]", "EC50": 6.81}, {"smiles": "CC(C)(C)C[C@]1(c2ccc(-c3cnn(C(F)F)c3)cc2)NC(=N)N([C@H](COC(=O)Nc2ccccn2)c2ccc(Cl)c(-n3ncnc3C(F)F)c2)C1=O", "note": "[Compound 181]", "EC50": 29}, {"smiles": "CC(C)C[C@]1(c2ccc(-c3cnn(C(F)F)c3)cc2)NC(=N)N([C@H](COC(=O)NC2(C(F)(F)F)CC2)c2ccc(Cl)c(-n3cncn3)c2)C1=O", "note": "[Compound 250]", "EC50": 29.8}, {"smiles": "CC(C)(C)C[C@]1(c2ccc(-c3ccn(C(F)F)n3)cc2F)NC(=N)N([C@H](COC(=O)NC2(C(F)(F)F)CC2)c2ccc(Cl)c(-n3ncnc3C(F)F)c2)C1=O", "note": "[Compound 285]", "EC50": 16.8}, {"smiles": "CC(C)(C)C[C@]1(c2ccc(-c3cnn(C(F)F)c3)cc2)NC(=N)N([C@H](COC(=O)N2CCC2)c2ccc(Cl)c(-c3ncn[nH]3)c2)C1=O", "note": "[Compound 86]", "EC50": 35.4}]}, {"tested_on": "HIV-1 (IIIB) in MT-4 cells", "experiment": "microbe, parasite or virus in culture", "format": "cell-based", "details": "Human immunodeficiency virus 1, IIIB, MT4, read-out: MT4 EC50 (nM)", "units": {"EC50": "nM"}, "values": [{"smiles": "CC(C)(C)C[C@]1(c2ccc(-c3cnn(C(F)F)c3)cc2)NC(=N)N([C@H](COC(=O)NC2(C(F)(F)F)CC2)c2ccc(Cl)c(-c3ncn[nH]3)c2)C1=O", "note": "[Compound 25]", "EC50": 52.7}]}]}
